Consider seven molecules from patent US12459951B2, “Compounds that interact with RAS superfamily proteins for treatment of cancers, inflammatory diseases, rasopathies, and fibrotic disease” (SHY Therapeutics, LLC, priority 2022, dated 2025).

One assay deals with Erk1/2 phosphorylation. The assay can be described thus: Erk1/2 Phosphorylation Assay (western blot), Panc-1. The assay is classed as cell-based, human. As to conditions: at 10 μM, * = activation. In outline:
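Phospho-Erk1/2 (Thr202/Tyr204) was detected by western blot in lysates of Panc-1 cells (KRas G12D). These had 6 h, 37° C exposure to 10 μM compound or a dilution series for IC50, in 0.3% DMSO. Cells were either starved overnight in 0.5% FBS with a 15-min 1.5 ng/ml EGF pulse, or kept unstimulated in 10% FBS.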
Background: In western blotting, separated proteins are transferred to a membrane and probed.

The next assay concerns the target T1, Rac-1 (Homo sapiens, UniProt P63000).
T1 construct: made in house
Nature of the assay: Ras GTP Binding Domain Inhibition Assay (Ras Superfamily Assay). Conditions: read-out: Rac-1: % inh. A digest of the protocol:
(§1)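 His-tagged GTPases immobilised on nickel-coated plates, pre-incubated with compound (20 μM single point, or serial dilution for IC50) 3 h at room temperature, with or without 10-30 μg/mL Sos (residues 556-1049) in the final hour. Bound Cy3- or Cy5-GTP (100 nM, 45 min) measured by fluorescence after washing.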

In a further assay the test system is KRas wild type. The assay is described as above. As to conditions: 20 μM compound; for KRas wild type + SOS: % inh.: with SOS; for KRas wild type: % inh.: without SOS. A digest of the protocol:
as §1

The subject of a further assay is KRas G12C mutant. The description is as above. Conditions: 20 μM compound; for KRas G12C mutant + SOS: % inh.: with SOS; for KRas G12C mutant: % inh.: without SOS. A digest of the protocol:
as §1

In another assay the test system is KRas Q61H mutant. The assay is described as above. As to conditions: 20 μM compound; for KRas Q61H mutant + SOS: % inh.: with SOS; for KRas Q61H mutant: % inh.: without SOS. In outline:
as §1

A further assay concerns KRas G12D mutant. The description is as above. As to conditions: 20 μM compound; for KRas G12D mutant + SOS: % inh.: with SOS; for KRas G12D mutant: % inh.: without SOS. A digest of the protocol:
as §1

A further assay deals with T2, Rho-A (Homo sapiens, UniProt P61586).
T2 construct: made in house
T2 sequence (P61586 whole entry): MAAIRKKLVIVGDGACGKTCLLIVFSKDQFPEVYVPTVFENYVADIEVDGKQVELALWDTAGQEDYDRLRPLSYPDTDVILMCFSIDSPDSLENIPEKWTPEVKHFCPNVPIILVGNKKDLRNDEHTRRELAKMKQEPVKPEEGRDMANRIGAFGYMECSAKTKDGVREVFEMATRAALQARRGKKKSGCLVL
The assay is described as above. As to conditions: read-out: Rho-A: % inh.. In outline: as §1

Consider `Cc1c(-c2ccn(C(C)C)n2)cn2nc(-c3nccn3C)nc(Nc3ccncn3)c12` [Compound 55, 6-(1-Isopropyl-1H-pyrazol-3-yl)-5-methyl-2-(1-methyl-1H-imidazol-2-yl)-N-(pyrimidin-4-yl)pyrrolo[2,1-f][1,2,4]triazin-4-amine], for which the “% inh of Erk1/2 phosphorylation in Panc-1” value (shortened to “% inh … in Panc-1”) in the assay with Erk1/2 phosphorylation was “A (1-25% inhibition)”. The inhibition at 20 µM at Rac-1 is 76 to 100%. Besides, in the assay with KRas wild type, the “KRas wild type + SOS: % inh.” value was “C (C = 50-75% inhibition)” and the “KRas wild type: % inh.” value is recorded as “D (D = 76-100% inhibition)”. Also, in the assay with KRas G12C mutant, the “KRas G12C mutant + SOS: % inh.” value is recorded as “C (C = 50-75% inhibition)” and the “KRas G12C mutant: % inh.” value was “B (B = 26-49% inhibition)”. In addition, in the assay on KRas Q61H mutant, the “KRas Q61H mutant + SOS: % inh.” value was “D (D = 76-100% inhibition)” and the “KRas Q61H mutant: % inh.” value is “D (D = 76-100% inhibition)”. Moreover, in the assay on KRas G12D mutant, the “KRas G12D mutant + SOS: % inh.” value is on record as “C (C = 50-75% inhibition)” and the “KRas G12D mutant: % inh.” value is “D (D = 76-100% inhibition)”. For the same molecule, on Rho-A, the inhibition at 20 µM fell in the range of 76 to 100%.
Consider `Cc1c(-c2ccn(C(C)C)n2)cn2nc(-c3nccn3C)nc(Nc3ncco3)c12` [Compound 60, N-(6-(1-Isopropyl-1H-pyrazol-3-yl)-5-methyl-2-(1-methyl-1H-imidazol-2-yl)pyrrolo[2,1-f][1,2,4]triazin-4-yl)oxazol-2-amine], for which the “% inh … in Panc-1” value in the assay on Erk1/2 phosphorylation is on record as “A (1-25% inhibition)”. The inhibition at 20 µM at Rac-1 fell in the range of 1 to 25%. In the assay on KRas wild type, the “KRas wild type + SOS: % inh.” value is reported as “A (A = 1-25% inhibition)” and the “KRas wild type: % inh.” value is “A (A = 1-25% inhibition)”. In the assay with KRas G12C mutant, the “KRas G12C mutant + SOS: % inh.” value was 0 (0 = 0% inhibition) and the “KRas G12C mutant: % inh.” value is reported as “A (A = 1-25% inhibition)”. Further, in the assay with KRas Q61H mutant, the “KRas Q61H mutant + SOS: % inh.” value is given as “C (C = 50-75% inhibition)” and the “KRas Q61H mutant: % inh.” value is reported as “B (B = 26-49% inhibition)”. Besides, in the assay with KRas G12D mutant, the “KRas G12D mutant + SOS: % inh.” value was “A (A = 1-25% inhibition)” and the “KRas G12D mutant: % inh.” value is on record as “A (A = 1-25% inhibition)”. On Rho-A, the inhibition at 20 µM is 1 to 25%.
Take `COc1cc(Nc2nc(-c3nccn3C)nn3cc(-c4ccn(C)n4)c(C)c23)ncn1` [Compound 63, N-(6-Methoxypyrimidin-4-yl)-5-methyl-2-(1-methyl-1H-imidazol-2-yl)-6-(1-methyl-1H-pyrazol-3-yl)pyrrolo[2,1-f][1,2,4]triazin-4-amine]: the “% inh … in Panc-1” value in the assay with Erk1/2 phosphorylation was “A (1-25% inhibition)”. Moreover, the inhibition at 20 µM at Rac-1 lay within 76 to 100%. In addition, in the assay on KRas wild type, the “KRas wild type + SOS: % inh.” value is on record as “D (D = 76-100% inhibition)” and the “KRas wild type: % inh.” value is “D (D = 76-100% inhibition)”. Further, in the assay on KRas G12C mutant, the “KRas G12C mutant + SOS: % inh.” value is “C (C = 50-75% inhibition)” and the “KRas G12C mutant: % inh.” value is “D (D = 76-100% inhibition)”. In the assay on KRas Q61H mutant, the “KRas Q61H mutant + SOS: % inh.” value was “D (D = 76-100% inhibition)” and the “KRas Q61H mutant: % inh.” value is reported as “D (D = 76-100% inhibition)”. Besides, in the assay with KRas G12D mutant, the “KRas G12D mutant + SOS: % inh.” value is reported as “D (D = 76-100% inhibition)” and the “KRas G12D mutant: % inh.” value is “D (D = 76-100% inhibition)”. The inhibition at 20 µM at Rho-A fell in the range of 76 to 100%.
In the case of `COc1ccnc(Nc2nc(-c3nccn3C)nn3cc(-c4ccn(C(C)C)n4)c(C)c23)n1` [Compound 53, 6-(1-Isopropyl-1H-pyrazol-3-yl)-N-(4-methoxypyrimidin-2-yl)-5-methyl-2-(1-methyl-1H-imidazol-2-yl)pyrrolo[2,1-f][1,2,4]triazin-4-amine], in the assay on Erk1/2 phosphorylation, the “% inh … in Panc-1” value is on record as “D (85-100% inhibition)”. The inhibition at 20 µM on Rac-1 lay within 76 to 100%. In the assay with KRas wild type, the “KRas wild type + SOS: % inh.” value was “C (C = 50-75% inhibition)” and the “KRas wild type: % inh.” value is on record as “C (C = 50-75% inhibition)”. In the assay on KRas G12C mutant, the “KRas G12C mutant + SOS: % inh.” value is “C (C = 50-75% inhibition)” and the “KRas G12C mutant: % inh.” value is “C (C = 50-75% inhibition)”. In addition, in the assay on KRas Q61H mutant, the “KRas Q61H mutant + SOS: % inh.” value is “D (D = 76-100% inhibition)” and the “KRas Q61H mutant: % inh.” value was “D (D = 76-100% inhibition)”. In the assay with KRas G12D mutant, the “KRas G12D mutant + SOS: % inh.” value is listed as “C (C = 50-75% inhibition)” and the “KRas G12D mutant: % inh.” value is “C (C = 50-75% inhibition)”. Besides, on Rho-A, the inhibition at 20 µM lay within 76 to 100%.
In the case of `Cc1c(-c2ccn(C(C)C)n2)cn2nc(-c3nccn3C)nc(Nc3nnco3)c12` [Compound 59, N-(6-(1-Isopropyl-1H-pyrazol-3-yl)-5-methyl-2-(1-methyl-1H-imidazol-2-yl)pyrrolo[2,1-f][1,2,4]triazin-4-yl)-1,3,4-oxadiazol-2-amine], the “% inh … in Panc-1” value in the assay with Erk1/2 phosphorylation was “C (50-84% inhibition)”. Also, on Rac-1, the inhibition at 20 µM fell in the range of 76 to 100%. Moreover, in the assay with KRas wild type, the “KRas wild type + SOS: % inh.” value is “C (C = 50-75% inhibition)” and the “KRas wild type: % inh.” value is reported as “C (C = 50-75% inhibition)”. In addition, in the assay on KRas G12C mutant, the “KRas G12C mutant + SOS: % inh.” value was “B (B = 26-49% inhibition)” and the “KRas G12C mutant: % inh.” value is on record as “C (C = 50-75% inhibition)”. In the assay on KRas Q61H mutant, the “KRas Q61H mutant + SOS: % inh.” value is “D (D = 76-100% inhibition)” and the “KRas Q61H mutant: % inh.” value is recorded as “D (D = 76-100% inhibition)”. In addition, in the assay on KRas G12D mutant, the “KRas G12D mutant + SOS: % inh.” value is on record as “C (C = 50-75% inhibition)” and the “KRas G12D mutant: % inh.” value is “D (D = 76-100% inhibition)”. Moreover, the inhibition at 20 µM at Rho-A is 76 to 100%.
For the molecule `COCCCNc1nc(-c2nccn2C)nn2cc(-c3cccc(OC)c3Cl)c(-c3ccccc3)c12` [Compound 30, 6-(2-Chloro-3-methoxyphenyl)-N-(3-methoxypropyl)-2-(1-methyl-1H-imidazol-2-yl)-5-phenylpyrrolo[2,1-f][1,2,4]triazin-4-amine], in the assay with Erk1/2 phosphorylation, the “% inh … in Panc-1” value is listed as “D (85-100% inhibition)”. Moreover, on Rac-1, the inhibition at 20 µM amounted to 0%. Further, in the assay with KRas wild type, the “KRas wild type + SOS: % inh.” value is listed as 0 (0 = 0% inhibition) and the “KRas wild type: % inh.” value was “A (A = 1-25% inhibition)”. In the assay with KRas G12C mutant, the “KRas G12C mutant + SOS: % inh.” value was 0 (0 = 0% inhibition) and the “KRas G12C mutant: % inh.” value is reported as “A (A = 1-25% inhibition)”. In the assay with KRas Q61H mutant, the “KRas Q61H mutant + SOS: % inh.” value is listed as 0 (0 = 0% inhibition) and the “KRas Q61H mutant: % inh.” value is recorded as 0 (0 = 0% inhibition). For the same molecule, in the assay with KRas G12D mutant, the “KRas G12D mutant + SOS: % inh.” value is “A (A = 1-25% inhibition)” and the “KRas G12D mutant: % inh.” value is 0 (0 = 0% inhibition). In addition, at Rho-A, the inhibition at 20 µM is 1 to 25%.
Take `COC1CCCN(c2nc(-c3ccccn3)nn3cc(-c4ccn(C(C)C)n4)c(-c4ccccc4)c23)C1` (racemic) [Compound 27, rac 6-(1-Isopropyl-1H-pyrazol-3-yl)-4-(3-methoxypiperidin-1-yl)-5-phenyl-2-(pyridin-2-yl)pyrrolo[2,1-f][1,2,4]triazine]: the “% inh … in Panc-1” value in the assay on Erk1/2 phosphorylation is 0 (0% inhibition). Also, the inhibition at 20 µM at Rac-1 was 1 to 25%. In addition, in the assay with KRas wild type, the “KRas wild type + SOS: % inh.” value is reported as “A (A = 1-25% inhibition)” and the “KRas wild type: % inh.” value was “A (A = 1-25% inhibition)”. In the assay with KRas G12C mutant, the “KRas G12C mutant + SOS: % inh.” value is on record as 0 (0 = 0% inhibition) and the “KRas G12C mutant: % inh.” value is 0 (0 = 0% inhibition). In the assay with KRas Q61H mutant, the “KRas Q61H mutant + SOS: % inh.” value is 0 (0 = 0% inhibition) and the “KRas Q61H mutant: % inh.” value is on record as “A (A = 1-25% inhibition)”. Moreover, in the assay with KRas G12D mutant, the “KRas G12D mutant + SOS: % inh.” value is 0 (0 = 0% inhibition) and the “KRas G12D mutant: % inh.” value is reported as 0 (0 = 0% inhibition). The inhibition at 20 µM at Rho-A is 1 to 25%.
